Source: PMC3157558, “Huprines as a new family of dual acting trypanocidal–antiplasmodial agents” (Bioorganic & Medicinal Chemistry, 2011)
Structures can show the parent of a compound that is named as a salt. Where two headings read alike, the source gives them in different places.

Legend:
in vitro = format: cell-based, Trypanosoma brucei; settings: 427, rat
Protocol: (§1) Trypanocidal activity was assessed by growing parasites for 48 h in the presence of various drug concentrations and determining the levels which inhibited growth by 50% (IC50) and 90% (IC90). In the case of untreated cultures, cell densities increased from 0.25 × 10^5 to 1 × 10^6 over this period. Cell densities at each drug concentration were determined using a hemocytometer and drug sensitivity was expressed as a percentage of growth of control cells.

[1] = test system: bloodstream form T. brucei; test: microbe, parasite or virus in culture; format: cell-based, Trypanosoma brucei; settings: for SI (selectivity index, ratio of cytotoxic to trypanocidal IC50 values): IC50 against L6 cells/IC50 against T. brucei
Protocol: as §1

[2] = test system: rat skeletal myoblast L6 cells; test: Cytotoxic activity against rat skeletal myoblast L6 cells (Alamar Blue); format: cell-based; settings: 6 days incubation, mean of triplicate ± SEM
Protocol: Cytotoxicity against mammalian cells was assessed using microtitre plates following a described procedure.[41] Briefly, L6 cells (a rat skeletal muscle line) were seeded at 1 × 10^4 ml^−1 in 200 μL of growth medium containing different compound concentrations. The plates were incubated for 6 days at 37 °C and 20 μL Alamar Blue (Biosource UK Ltd) was then added to each well. After a further 8 h incubation, the fluorescence was determined using a Gemini fluorescent plate reader (Molecular Devices).

acetylcholinesterase = test system: acetylcholinesterase; parameters: method as in PMID 10464010, PMID 11101357; settings: cited from earlier work
[3] = test system: memory and learning activities; settings: cited from earlier work
[4] = test system: Alzheimer's disease related brain neuropathology; parameters: method as in PMID 20689242; settings: transgenic mouse model; cited from earlier work
[5] = Trypanosoma brucei, bloodstream form T. brucei, pH 7.4, 48 h growth, concentration inhibiting growth by 90%, mean of triplicate ± SEM, read-out: T. brucei IC90
[6] = Trypanosoma brucei, bloodstream form T. brucei, pH 7.4, 48 h growth, mean of triplicate experiments ± SEM, read-out: T. brucei IC50
[7] = Trypanosoma brucei, 48 h, pH 7.4, read-out: T. brucei IC50
[8] = Trypanosoma brucei, 48 h, pH 7.4, read-out: T. brucei IC90
[9] = bloodstream form T. brucei, pH 7.4, 48 h growth, concentration inhibiting growth by 90%, mean of triplicate ± SEM, read-out: T. brucei IC90
[10] = bloodstream form T. brucei, pH 7.4, 48 h growth, mean of triplicate experiments ± SEM, read-out: T. brucei IC50

Structure (SMILES)	IC90 [1, 5] [µM]	IC50 [1, 6] [µM]	IC90 [1, 9] [µM]	IC50 [1, 10] [µM]	SI (selectivity index, ratio of cytotoxic to trypanocidal IC50 values) [1]	IC50 [2] [µM]	further results
CC1=CC2Cc3nc4cc(Cl)ccc4c(N)c3C(C1)C2 (stereo not drawn) [huprine 3]	2.94 ± 0.2	0.61 ± 0.03					selectivity ratio (in vitro): 12.8; IC50 ([2]; 144 h): 7.8 ± 0.47 µM; acetylcholinesterase inhibitory potency (rank in words) (acetylcholinesterase): most potent acetylcholinesterase inhibitors
CCC1=CC2Cc3nc4cc(Cl)ccc4c(N)c3[C@@H](C1)C2 [huprine 4]	1.76 ± 0.2	0.84 ± 0.06					IC50 ([2]; 144 h): 12.5 ± 0.4 µM; adverse effects in behavioural studies ([3]; behavioural studies in mice): did not induce adverse effects; effect on memory and learning activities ([3]; middle aged mice): ameliorate memory and learning activities; effect on Alzheimer's disease related brain neuropathology [4]: ameliorate; acetylcholinesterase inhibitory potency (rank in words) (acetylcholinesterase): most potent acetylcholinesterase inhibitors
CC(C)C1=CC2Cc3nc4ccccc4c(N)c3C(C1)C2 (stereo not drawn) [huprine 5]							IC50 [1, 7]: 2.06 ± 0.44 µM; IC90 [1, 8]: 4.76 ± 0.82 µM
C=CCC1=CC2Cc3nc4ccccc4c(N)c3C(C1)C2 (stereo not drawn) [huprine 6]	8.52 ± 0.19	4.08 ± 0.45					
CC(C)C1=CC2Cc3nc4cc(Cl)ccc4c(N)c3C(C1)C2 (stereo not drawn) [huprine 8, 12-Amino-3-chloro-6,7,10,11-tetrahydro-9-isopropyl-7,11-methanocycloocta[b]quinoline hydrochloride]			4.34 ± 0.03	2.45 ± 0.37			
C=CCC1=CC2Cc3nc4cc(Cl)ccc4c(N)c3C(C1)C2 (stereo not drawn) [huprine 9, 9-Allyl-12-amino-3-chloro-6,7,10,11-tetrahydro-7,11-methanocycloocta[b]quinoline hydrochloride]	2.87 ± 0.18	0.76 ± 0.07					selectivity ratio (in vitro; IC50 against L6 cells/IC50 against T. brucei, read-out: SI (selectivity index, ratio of cytotoxic to trypanocidal IC50 values)): 16.3; IC50 ([2]; 144 h): 12.4 ± 0.4 µM
CC(C)C1=CC2Cc3nc4cccc(F)c4c(N)c3C(C1)C2 (stereo not drawn) [huprine 10, 12-Amino-1-fluoro-6,7,10,11-tetrahydro-9-isopropyl-7,11-methanocycloocta[b]quinoline hydrochloride]			7.75 ± 0.23	2.6 ± 0.55			
C=CCC1=CC2Cc3nc4cccc(F)c4c(N)c3C(C1)C2 (stereo not drawn) [huprine 11, 9-Allyl-12-amino-1-fluoro-6,7,10,11-tetrahydro-7,11-methanocycloocta[b]quinoline hydrochloride]							IC50 [1, 7]: 3.62 ± 0.54 µM; IC90 [1, 8]: 8.73 ± 0.69 µM
CCC1=CC2Cc3nc4ccccc4c(N)c3C(C1)C2 (stereo not drawn) [huprine 12]			4.53 ± 0.16	1.29 ± 0.16	12.1	15.6 ± 1.6	
CC(C)(C)C1=CC2Cc3nc4ccccc4c(N)c3C(C1)C2 (stereo not drawn) [huprine 14]			3.05 ± 0.03	0.88 ± 0.26	13.2	11.6 ± 0.5	acetylcholinesterase inhibitory potency (rank in words) (acetylcholinesterase): least potent acetylcholinesterase inhibitors
CC1=CC2Cc3nc4cc(C)ccc4c(N)c3C(C1)C2 (stereo not drawn) [huprine 17]			3.31 ± 0.59	1.04 ± 0.05	19.2	20 ± 0.5	
CCC1=CC2Cc3nc4cccc(Cl)c4c(N)c3C(C1)C2 (stereo not drawn) [huprine 18]			3.11 ± 0.29	1.36 ± 0.19	15.7	21.3 ± 1.3	
CCC1=CC2Cc3nc4cccc(C)c4c(N)c3C(C1)C2 (stereo not drawn) [huprine 20]			8.86 ± 0.15	5.28 ± 1.11			
